Key:
iNOS = assay: Western blotting of lung tissue, OVA-sensitized and -challenged mice; type: in vivo; settings: nebulization, 28-day experiment
[1] = test system: total cells, lymphocytes and eosinophils in BALF; assay: Cellular components in BALF, OVA-challenged mice; type: in vivo; settings: 24 hrs after last OVA challenge; nebulization
Description: Inflammation and remodeling of the bronchioles is associated with infiltration of blood-born lymphocytes, eosinophils and neutrophils, migrating into bronchial lumen. During the course of allergic disease, structural changes occur in the airways, referred to as remodeling. However, treatment with KMUP-1 prevents the migration of blood born cells into bronchiole.

MMP-9 = assay: Immunostaining of lung sections, OVA mice; type: in vivo; settings: OVA-sensitized and -challenged mice
TGF-β = TGF-β expression, bleomycin-induced lung fibrosis (EIA); type: in vivo, mice; settings: BM 60 mg/kg; drug 2.5 mg/kg oral
Description: The increased amount of the collagen synthesis and the macrophage generation in alveolus may facilitate the formulation of TGF-β, and the expression of TGF-β is deeming as a biomarker of the lung fibrosis. KMUP-1HCl salt (1, 2.5 and 5 mg/kg), the Simvastatin (5 mg/kg), the KMUP-1-nicotinic acid complex (2.5 mg/kg), the KMUP-1-Simvastatinic acid complex (2.5 mg/kg) and KMUP-1-γ-polyglutamic acid complex (2.5 mg/kg) are orally administered to the mice for inhibiting the lung fibrosis induced by TGF-β expression in tracheal lavage solution that resulted from 60 mg/kg BM inhalation (Table 6). The state of the TGF-β expression in the lavage is measured by the enzyme immunoassay (EIA).

With `Cn1c(=O)c2c(ncn2CCN2CCN(c3ccccc3Cl)CC2)n(C)c1=O` [KMUP-1, 7-[2-[4-(2-chlorobenzene)piperazinyl]ethyl]-1,3-dimethylxanthine] the “iNOS expression increased by OVA sensitization” value (iNOS) was “significantly reduced”, the “Increase in eosinophils in BALF” value [1] was “significantly reduces” and the “Increase in lymphocytes in BALF” value [1] was “significantly reduces”. For the same molecule, the “Increase in total cells in BALF” value [1] was “significantly reduces” and the MMP-9 positive cells (MMP-9) was “hardly detected”.
For `CCC(C)(C)C(=O)O[C@H]1C[C@@H](C)C=C2C=C[C@H](C)[C@H](CC[C@@H](O)C[C@@H](O)CC(=O)O)[C@H]21.Cn1c(=O)c2c(ncn2CCN2CCN(c3ccccc3Cl)CC2)n(C)c1=O` [KMUP-5], the “The changing amount of TGF-β in the lung tissue” value (TGF-β) was 45 ± 4.5%.

— patent US20100317671A1, “XANTHINE-BASED CYCLIC GMP-ENHANCING RHO-KINASE INHIBITOR INHIBITS PHYSIOLOGICAL ACTIVITIES OF LUNG EPITHELIAL CELL LINE” (KAOHSIUNG MEDICAL UNIVERSITY, priority 2008, published 2010)
